Measured values from patent publication US20230293526A1, “METHOD FOR TREATING CANCER WITH A REVERSE TRANSCRIPTASE INHIBITOR” (PrimeFour Therapeutics, Inc., priority 2020, published 2023).

System: cancer cell lines
Test: Cancer cell proliferation activity of representative nucleosides, CellTiterGlo 72 h (Example 7, Tables 8 and 9)
Assay type: cell-based
Conditions: 72 h
Method: Dose response relationships on cell proliferation was assessed for representative nucleosides on cancer cell lines. Briefly, compound treatment of cells started one day after seeding with a final DMSO concentration of 0.1%, and was performed by nanodrop-dispensing using a Tecan Dispenser. 0.1% DMSO (solvent) and Staurosporine (10 μM) served as high control (100% viability) and low control (0% viability), respectively. Cells were cultured in the appropriate media. For the assays, cells were seeded in white cell culture-treated flat and clear bottom multiwell plates and incubated at 37° C. overnight before compound was added. After incubation for 72 h at 37° C. at 5% or 10% CO2 dependent on the medium, cell plates were equilibrated to room temperature for one hour, CellTiterGlo reagent (Promega) was added and luminescence was measured approximately an hour later using a luminometer.
Raw data were converted into percent cell viability relative to the high and low control, which were set to 100% and 0%, respectively.

SMILES: N#C[C@]1(CO)O[C@@H](n2ccc(N)nc2=O)C[C@@H]1O [compound 29]
- IC50 (72 h, 5637, bladder): 230 nM
- IC50 (CLS439, bladder): 3000 nM
- IC50 (HS729, muscle): 550 nM
- IC50 (J82, bladder): 840 nM
- IC50 (JAR, placenta): > 50000 nM
- IC50 (MT3, breast): 120 nM
- IC50 (PC3, prostate): 200 nM
- IC50 (RD, muscle): 1400 nM
- IC50 (T24, bladder): 180 nM
- IC50 (Homo sapiens, 22Rv1, 72 h, 22RV1, prostate): 1040 nM
- IC50 (Homo sapiens, 786-0, 72 h, 786O, kidney): 1610 nM
- IC50 (Homo sapiens, A204, 72 h, A204, muscle): 30 nM
- IC50 (Homo sapiens, A549, 72 h, A549, lung): 880 nM
- IC50 (Homo sapiens, A673, 72 h, A673, bone): 200 nM
- IC50 (Homo sapiens, A2780, 72 h, A2780, ovary): 640 nM
- IC50 (Homo sapiens, A-375, 72 h, A375, skin): 570 nM
- IC50 (Homo sapiens, A-431, 72 h, A431, skin): 300 nM
- IC50 (Homo sapiens, ACHN, kidney): 710 nM
- IC50 (Homo sapiens, ASPC1, 72 h, ASPC1, pancreas): 280 nM
- IC50 (Homo sapiens, BT-20, 72 h, BT20, breast): 1470 nM
- IC50 (Homo sapiens, BXPC-3, 72 h, BXPC3, pancreas): 350 nM
- IC50 (Homo sapiens, C-33-A, C33A, endometrial): 240 nM
- IC50 (Homo sapiens, CAKI-1, 72 h, CAKI1, kidney): 110 nM
- IC50 (Homo sapiens, COLO 205, 72 h, COLO205, colon): 160 nM
- IC50 (Homo sapiens, COLO-678, 72 h, COLO678, colon): 10800 nM
- IC50 (Homo sapiens, Ca-Ski, CASKI, endometrial): 5220 nM
- IC50 (Homo sapiens, Caco-2, 72 h, CACO2, colon): > 50000 nM
- IC50 (Homo sapiens, Calu-6, 72 h, CALU6, lung): 2540 nM
- IC50 (Homo sapiens, DLD-1, 72 h, DLD1, colon): 770 nM
- IC50 (Homo sapiens, DU-145, 72 h, DU145, prostate): 330 nM
- IC50 (Homo sapiens, EFO-21, 72 h, EFO21, ovary): 1190 nM
- IC50 (Homo sapiens, EJ-28, 72 h, EJ28, bladder): 2340 nM
- IC50 (Homo sapiens, Granta-519, 72 h, GRANTA-519, hematological): 80 nM
- IC50 (Homo sapiens, HCT-15, 72 h, HCT15, colon): 810 nM
- IC50 (Homo sapiens, HCT-116, 72 h, HCT116, colon): 550 nM
- IC50 (Homo sapiens, HEK293, 72 h, HEK293, kidney): 12700 nM
- IC50 (Homo sapiens, HL-60, 72 h, HL-60, hematological): 540 nM
- IC50 (Homo sapiens, HT-29, 72 h, HT29, colon): 1060 nM
- IC50 (Homo sapiens, HT-1080, 72 h, HT1080, connective tissue): 350 nM
- IC50 (Homo sapiens, HeLa, endometrial): 750 nM
- IC50 (Homo sapiens, HepG2, 72 h, HEPG2, liver): 2670 nM
- IC50 (Homo sapiens, Hs-578T, HS578T, breast): 1790 nM
- IC50 (Homo sapiens, IGROV-1, 72 h, IGROV1, ovary): 1370 nM
- IC50 (Homo sapiens, IMR-90, 72 h, IMR90, lung): 2730 nM
- IC50 (Homo sapiens, JEG-3, 72 h, JEG3, placenta): 1900 nM
- IC50 (Homo sapiens, JIMT-1, 72 h, JIMT1, breast): 210 nM
- IC50 (Homo sapiens, K562, 72 h, K-562, hematological): 1610 nM
- IC50 (Homo sapiens, Kasumi 1, 72 h, KASUMI-1, hematological): 220 nM
- IC50 (Homo sapiens, L-363, 72 h, L-363, hematological): > 50000 nM
- IC50 (Homo sapiens, LoVo, colon): 440 nM
- IC50 (Homo sapiens, MCF7, 72 h, MCF7, breast): > 50000 nM
- IC50 (Homo sapiens, MDA-MB-231, 72 h, MDAMB231, breast): 130 nM
- IC50 (Homo sapiens, MDA-MB-435, 72 h, MDAMB435, skin): 2120 nM
- IC50 (Homo sapiens, MDA-MB-436, 72 h, MDAMB436, breast): 360 nM
- IC50 (Homo sapiens, MDA-MB-468, 72 h, MDAMB468, breast): 1200 nM
- IC50 (Homo sapiens, MG-63, 72 h, MG63, bone): 570 nM
- IC50 (Homo sapiens, MHH-ES-1, 72 h, MHHES1, bone): 210 nM
- IC50 (Homo sapiens, MIA PaCa-2, 72 h, MIAPACA2, pancreas): 1930 nM
- IC50 (Homo sapiens, MINO, hematological): 70 nM
- IC50 (Homo sapiens, MV4-11, 72 h, MV4-11, hematological): 600 nM
- IC50 (Homo sapiens, NCI-H23, 72 h, NCI-H23, lung): 1340 nM
- IC50 (Homo sapiens, NCI-H82, 72 h, NCIH82, lung): > 50000 nM
- IC50 (Homo sapiens, NCI-H292, 72 h, NCIH292, lung): 790 nM
- IC50 (Homo sapiens, NCI-H460, 72 h, NCIH460, ung): 2050 nM
- IC50 (Homo sapiens, OVCAR-3, 72 h, OVCAR3, ovary): 580 nM
- IC50 (Homo sapiens, OVCAR-4, 72 h, OVCAR4, ovary): 4180 nM
- IC50 (Homo sapiens, PANC-1, 72 h, PANC1, pancreas): 3430 nM
- IC50 (Homo sapiens, PLC-PRF-5, 72 h, PLCPRF5, liver): > 50000 nM
- IC50 (Homo sapiens, Panc1005, 72 h, PANC1005, pancreas): 650 nM
- IC50 (Homo sapiens, Ramos, hematological): 170 nM
- IC50 (Homo sapiens, SAOS-2, 72 h, SAOS2, bone): 110 nM
- IC50 (Homo sapiens, SF-268, 72 h, SF268, brain): 350 nM
- IC50 (Homo sapiens, SF-295, 72 h, SF295, brain): 1130 nM
- IC50 (Homo sapiens, SK-BR-3, 72 h, SKBR3, breast): 650 nM
- IC50 (Homo sapiens, SK-HEP1, 72 h, SKHEP1, liver): 240 nM
- IC50 (Homo sapiens, SK-LMS-1, 72 h, SKLMS1, uterus): 3740 nM
- IC50 (Homo sapiens, SK-MEL-5, 72 h, SKMEL5, skin): > 50000 nM
- IC50 (Homo sapiens, SK-MEL-28, 72 h, SKMEL28, skin): 2630 nM
- IC50 (Homo sapiens, SK-N-AS, SKNAS, brain): 4410 nM
- IC50 (Homo sapiens, SK-N-SH, SKNSH, brain): > 50000 nM
- IC50 (Homo sapiens, SK-OV-3, 72 h, SKOV3, ovary): 890 nM
- IC50 (Homo sapiens, SNB-75, 72 h, SNB75, brain): 840 nM
- IC50 (Homo sapiens, SU-DHL10, 72 h, SU-DHL-10, hematological): 500 nM
- IC50 (Homo sapiens, SU-DHL-6, 72 h, SU-DHL-6, hematological): 800 nM
- IC50 (Homo sapiens, SW-620, 72 h, SW620, colon): 2640 nM
- IC50 (Homo sapiens, TE-671, 72 h, TE671, muscle): 1750 nM
- IC50 (Homo sapiens, THP-1, 72 h, THP-1, hematological): 970 nM
- IC50 (Homo sapiens, U2OS, bone): 5320 nM
- IC50 (Homo sapiens, U-87 MG, U87MG, brain): 500 nM
- IC50 (Homo sapiens, UMUC3, 72 h, UMUC3, bladder): 1160 nM
- IC50 (Homo sapiens, UO-31, 72 h, UO31, kidney): 660 nM
- IC50 (Homo sapiens, WSU-NHL, hematological): 220 nM
- IC50 (NCI-H358M, NCIH358M, lung): 40 nM
- IC50 (PBMC, hematological): 350 nM
- IC50 (RD-ES, RDES, bone): 1620 nM
